Data reported in ChEMBL document CHEMBL3792292, “Development of a potent and selective FLT3 kinase inhibitor by systematic expansion of a non-selective fragment-screening hit” (Bioorg Med Chem Lett, 2016).

Legend:
[1] = biological target: Ribosomal protein S6 kinase beta-1 (Homo sapiens) (UniProt P23443); assay: Inhibition of human N-terminal GST-tagged p70S6K catalytic domain (1 to 421 residues) expressed in baculovirus expression system coexpressing His-tagged PDK1 (1 to 556 residues) using fluorescence labelled S6K2 peptide substrate at 50 times IC50 by electrophoretic mobility shift assay relative to control
[2] = biological target: Serine/threonine-protein kinase pim-1 (Homo sapiens) (UniProt P11309); assay: Inhibition of full length human N-terminal His-tagged PIM1 (1 to 313 residues) expressed in baculovirus expression system using fluorescence labelled S6K2 peptide substrate at 50 times IC50 by electrophoretic mobility shift assay relative to control
[3] = biological target: T1, Interleukin-1 receptor-associated kinase 4 (Homo sapiens) (UniProt Q9NWZ3); assay: Inhibition of full length human N-terminal GST-tagged IRAK4 (1 to 460 residues) expressed in baculovirus expression system using fluorescence labelled IRAK1 peptide substrate at 50 times IC50 by electrophoretic mobility shift assay relative to control
T1 sequence (whole entry): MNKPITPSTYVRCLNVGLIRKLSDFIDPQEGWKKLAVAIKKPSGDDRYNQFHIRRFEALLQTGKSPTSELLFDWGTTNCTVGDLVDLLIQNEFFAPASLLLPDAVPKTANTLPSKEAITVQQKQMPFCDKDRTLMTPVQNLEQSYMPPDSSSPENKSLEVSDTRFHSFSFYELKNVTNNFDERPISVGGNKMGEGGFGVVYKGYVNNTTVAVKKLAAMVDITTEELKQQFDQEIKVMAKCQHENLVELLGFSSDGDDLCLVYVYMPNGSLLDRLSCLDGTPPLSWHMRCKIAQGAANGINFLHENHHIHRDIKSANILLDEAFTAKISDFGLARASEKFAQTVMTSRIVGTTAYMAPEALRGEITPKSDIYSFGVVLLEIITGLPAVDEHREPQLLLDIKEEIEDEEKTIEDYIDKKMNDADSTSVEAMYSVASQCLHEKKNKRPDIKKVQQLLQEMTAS

[4] = biological target: Serine/threonine-protein kinase PAK 2 (Homo sapiens) (UniProt Q13177); assay: Inhibition of full length human N-terminal GST-tagged PAK2 (1 to 524 residues) expressed in baculovirus expression system using fluorescence labelled DAPK1tide as substrate at 50 times IC50 by electrophoretic mobility shift assay relative to control
[5] = biological target: T2, Inhibitor of nuclear factor kappa-B kinase subunit beta (Homo sapiens) (UniProt O14920); assay: Inhibition of human N-terminal His-tagged IKKbeta (1 to 662 residues) expressed in baculovirus expression system using fluorescence labelled modified IKBalpha derived peptide substrate at 50 times IC50 by electrophoretic mobility shift assay relative to control
T2 sequence (whole entry): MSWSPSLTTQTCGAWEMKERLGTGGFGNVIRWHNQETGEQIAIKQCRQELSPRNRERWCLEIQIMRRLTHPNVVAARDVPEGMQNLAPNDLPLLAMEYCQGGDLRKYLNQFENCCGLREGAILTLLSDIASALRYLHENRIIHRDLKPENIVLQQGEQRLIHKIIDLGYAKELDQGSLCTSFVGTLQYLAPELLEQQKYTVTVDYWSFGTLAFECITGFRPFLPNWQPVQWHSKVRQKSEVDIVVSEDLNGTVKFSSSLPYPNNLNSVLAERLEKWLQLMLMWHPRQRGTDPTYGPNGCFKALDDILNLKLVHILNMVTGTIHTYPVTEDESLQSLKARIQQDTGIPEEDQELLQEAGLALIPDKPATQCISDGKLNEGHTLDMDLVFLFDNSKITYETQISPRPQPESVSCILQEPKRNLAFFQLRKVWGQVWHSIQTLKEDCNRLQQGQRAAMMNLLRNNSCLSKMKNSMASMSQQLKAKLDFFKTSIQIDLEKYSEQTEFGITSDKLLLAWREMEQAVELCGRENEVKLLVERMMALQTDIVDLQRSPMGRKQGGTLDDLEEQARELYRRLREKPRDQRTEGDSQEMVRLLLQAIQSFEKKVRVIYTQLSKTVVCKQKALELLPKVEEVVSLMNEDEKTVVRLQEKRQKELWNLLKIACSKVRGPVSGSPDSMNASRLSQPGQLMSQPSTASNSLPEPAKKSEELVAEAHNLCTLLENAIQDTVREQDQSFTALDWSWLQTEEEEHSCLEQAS

[6] = biological target: Mitogen-activated protein kinase 9 (Homo sapiens) (UniProt P45984); assay: Inhibition of human N-terminal GST-tagged JNK2 catalytic domain (1 to 364 residues) expressed in Escherichia coli using fluorescence labelled modified Erktide as substrate at 50 times IC50 by electrophoretic mobility shift assay relative to control
[7] = biological target: T3, Serine/threonine-protein kinase Sgk1 (Homo sapiens) (UniProt O00141); assay: Inhibition of human N-terminal GST-tagged SGK (61 to 431 residues) expressed in baculovirus expression system coexpressing His-tagged PDK1 (1 to 556 residues) using fluorescence labelled SGKtide as substrate at 50 times IC50 by electrophoretic mobility shift assay relative to control
T3 sequence (whole entry): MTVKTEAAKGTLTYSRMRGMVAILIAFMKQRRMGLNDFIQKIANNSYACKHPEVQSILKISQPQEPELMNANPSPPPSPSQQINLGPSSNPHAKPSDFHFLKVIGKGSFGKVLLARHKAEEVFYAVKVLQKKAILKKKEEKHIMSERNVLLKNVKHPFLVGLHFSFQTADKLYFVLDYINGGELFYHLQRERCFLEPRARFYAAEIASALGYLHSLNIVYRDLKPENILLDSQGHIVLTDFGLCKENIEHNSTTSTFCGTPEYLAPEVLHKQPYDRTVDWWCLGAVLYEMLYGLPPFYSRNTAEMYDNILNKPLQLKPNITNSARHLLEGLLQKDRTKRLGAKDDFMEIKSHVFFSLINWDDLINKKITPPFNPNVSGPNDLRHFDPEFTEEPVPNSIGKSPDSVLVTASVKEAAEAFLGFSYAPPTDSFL

[8] = biological target: T4, Aurora kinase A (Homo sapiens) (UniProt O14965); assay: Inhibition of full length human N-terminal GST-tagged Aurora A (1 to 403 residues) expressed in baculovirus expression system using fluorescence labelled kemptide as substrate at 50 times IC50 by electrophoretic mobility shift assay relative to control
T4 sequence (whole entry): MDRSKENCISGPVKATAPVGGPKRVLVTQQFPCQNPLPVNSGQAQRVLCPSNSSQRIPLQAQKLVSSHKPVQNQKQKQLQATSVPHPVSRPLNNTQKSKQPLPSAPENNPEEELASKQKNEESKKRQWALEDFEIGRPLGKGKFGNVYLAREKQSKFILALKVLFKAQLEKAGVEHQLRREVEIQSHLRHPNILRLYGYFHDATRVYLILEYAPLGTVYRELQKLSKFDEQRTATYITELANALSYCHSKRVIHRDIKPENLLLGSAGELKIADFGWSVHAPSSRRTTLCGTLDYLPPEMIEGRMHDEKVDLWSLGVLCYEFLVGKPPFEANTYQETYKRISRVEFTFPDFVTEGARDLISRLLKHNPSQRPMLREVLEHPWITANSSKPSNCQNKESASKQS

SMILES | inhibition [1] [%] | inhibition [2] [%] | inhibition [3] [%] | inhibition [4] [%] | inhibition [5] [%] | inhibition [6] [%] | inhibition [7] [%] | inhibition [8] [%]
O=C(Nc1ccccc1)c1n[nH]c2ccccc12 | 47.3 | 3.1 | 19.7 | 0.8 | 0.7 | 24.5 | 42.4 | 45.2
O=C(Nc1ccc(CN2CCN(c3ccccc3)CC2)cc1)c1n[nH]c2ccccc12 | 17.8 | 6 | -1.9 | 0.6 | 0.6 | -1.1 | 11.9 | 6.1
O=C(Nc1ccc(C(=O)N2CCN(c3ccccc3)CC2)cc1)c1n[nH]c2ccccc12 | 43 | 3 | 2.6 | -1.6 | 1.3 | 9.3 | 26.3 | 31.3
